{
  "source": "patent US10400263B2",
  "about": "“Tripeptide rhodamine compound” (Kingston Uninversity Higher Education Corporation, priority 2012, dated 2019)",
  "key": {"E. coli": {"tested_on": "E. coli", "assay": "LGX staphylocoagulase fluorescence assay, E. coli strains", "type": "cell-based", "details": "for fluorescence over the 6 hour time period: high and low concentrations", "procedure": "(§1) Each sample was rinsed liberally in sterile 1×PBS and varying concentrations of bacterial suspension from 10^0-10^6 were generated by serial dilution in 1×PBS. Additionally, bacterial cultures were furthermore maintained on nutrient agar to assess the coagulase status of the isolate.\n(§2) To determine the effects of varying bacterial concentrations with respect to bacterial strains and concentrations of the compounds according to the present invention on staphylocoagulase activity, 100 and 50 μM solutions containing LGX were prepared in 1×PBS with the addition of 0.05 M Tris Buffer and 0.1 M NaCl to maintain a pH of 8.5 using LGX dissolved in MeOH so that final concentration of methanol was no more than 2.5%. Furthermore, an appropriate concentration (100 μM and 50 μM, respectively) of human prothrombin was added to the solution.\n(§3) The plate reader used was a Fluostar Optima, and the plates used were Nunclon Surface 96 well plates. Positive controls for each experiment was a strain of MRSA, and the negative control for each experiment was a strain of E. coli, both of which were picked at random to ensure there was no bias within the data. A 1:1 ratio of the LGX solution with PBS was also assayed as “LGX alone” sample, which has been designated as a black line on the graphs below. n=3 cultures were assayed in each case.\n(§4) Clinical isolates of Methicillin Resistant Staphylococcus Aureus (MRSA), Methicillin Sensitive Staphylococcus Aureus (MSSA), Staphylococcus Epidermidis, Eschericia coli and other staphyloccal species were cultured on nutrient agar prior to being grown overnight in nutrient broth under shaking conditions at 37° C. Each sample was rinsed liberally in sterile 1×PBS and varying concentrations of bacterial suspension from […] were generated by serial dilution in 1×PBS. Additionally, bacterial cultures were furthermore maintained on nutrient agar to assess the coagulase status of the isolate.\n(§5) To determine the effects of varying bacterial concentrations with respect to bacterial strains and LGX concentrations on staphylocoagulase activity, 100 and 50 μM solutions of LGX were prepared in 1×PBS with the addition of 0.05 M Tris Buffer and 0.1 M NaCl to maintain a pH of 8.5 using LGX dissolved in MeOH so that final concentration of methanol was no more than 2.5%. Furthermore, an appropriate concentration (100 μM and 50 μM, respectively) of human prothrombin was added to the solution. 90 μl of LGX solution in addition to each respective bacterial isolate at varying concentrations was added to a microtitre plate. […] The plate reader used was a Fluostar Optima, and the plates used were Nunclon Surface 96 well plates."}, "[1]": {"tested_on": "coagulase negative staphylococci", "assay": "LGX staphylocoagulase fluorescence assay, coagulase negative staphylococci panel", "type": "cell-based", "procedure": "as §1, §2, §3"}, "S. warneri": {"tested_on": "S. warneri", "assay": "LGX system, S. warneri", "type": "cell-based", "procedure": "as §1\nas §2, with “Furthermore, an appropriate concentration (100 μM and 50 μM, respectively) of human prothrombin was added to the solution.” left out\nThe plate reader used was a Fluostar Optima, and the plates used were Nunclon Surface 96 well plates. […]\nTo determine the effects of varying bacterial concentrations with respect to bacterial strains and LGX concentrations on staphylocoagulase activity, 100 and 50 μM solutions of LGX were prepared in 1×PBS with the addition of 0.05 M Tris Buffer and 0.1 M NaCl to maintain a pH of 8.5 using LGX dissolved in MeOH so that final concentration of methanol was no more than 2.5%. […] The plate reader used was a Fluostar Optima, and the plates used were Nunclon Surface 96 well plates."}, "MRSA and MSSA": {"tested_on": "MRSA and MSSA", "assay": "LGX staphylocoagulase fluorescence assay, MRSA and MSSA together", "type": "cell-based, Staphylococcus aureus", "procedure": "as §1, §2, §3, §4, §5"}},
  "data": [
    {"smiles": "CC(C)[C@H](NC(=O)OC(C)(C)C)C(=O)N1CCC[C@H]1C(=O)N[C@@H](CCCNC(=N)N)C(=O)Nc1ccc2c(c1)Oc1cc(NC(=O)[C@H](CCCNC(=N)N)NC(=O)[C@@H]3CCCN3C(=O)[C@@H](NC(=O)OC(C)(C)C)C(C)C)ccc1C21OC(=O)c2ccccc21", "note": "(stereo partly drawn) [LGX, Rho-(Arg-Pro-Val-NHBoc)2]", "values": [
      {"measurement": "fluorescence over the duration of the experiment", "setting": "E. coli; 50 μM LGX, E. coli strains 10^6, 10^5, 10^3 and 10^2, FIG. 6", "value": "remain consistently low"},
      {"measurement": "fluorescence over the 6 hour time period", "setting": "E. coli; 50 μM LGX, E. coli, FIG. 13", "value": "no increase in fluorescence was observed"},
      {"measurement": "samples above 20,000 fluorescence units after 1 hour", "setting": "E. coli; 50 μM LGX, all concentrations of bacteria, E. coli", "value": 0, "unit": "%"},
      {"measurement": "fluorescence response within 1 hour", "setting": "E. coli; 50 μM or 100 μM LGX, E. coli", "value": "≤ 5000", "unit": "fluorescence units"},
      {"measurement": "fluorescence across the 6 hour time period", "setting": "E. coli; 100 μM LGX, E. coli strains, FIG. 7", "value": "remained consistently low"},
      {"measurement": "fluorescence over the 6 hour time period", "setting": "E. coli; 100 μM LGX, E. coli, FIG. 14", "value": "no increase in fluorescence was observed"},
      {"measurement": "LGX SYSTEM", "setting": "E. coli; E. COLI", "value": "−"},
      {"measurement": "samples above 20,000 fluorescence units after 1 hour", "setting": "[1]; 50 μM LGX, all concentrations of bacteria, coagulase negative staphylocci", "value": 0, "unit": "%"},
      {"measurement": "fluorescence over the duration of the experiment", "setting": "[1]; 50 μM LGX, coagulase negative strains 10^6, 10^5, 10^3 and 10^2, FIG. 8", "value": "remain consistently low"},
      {"measurement": "fluorescence response within 1 hour", "setting": "[1]; 50 μM or 100 μM LGX, coagulase negative staphylococci", "value": "≤ 5000", "unit": "fluorescence units"},
      {"measurement": "fluorescence across the 6 hour time period", "setting": "[1]; 100 μM LGX, coagulase negative strains, FIG. 9", "value": "remained consistently low"},
      {"measurement": "LGX SYSTEM", "setting": "S. warneri", "value": "−"},
      {"measurement": "isolates failed to reach a fluorescence reading of 20,000 within 30 minutes", "setting": "MRSA and MSSA; 50 μM LGX, 10^2 cell concentration of MRSA and MSSA", "value": 20, "unit": "%"},
      {"measurement": "isolates failed to reach a fluorescence reading of 20,000 within 30 minutes", "setting": "MRSA and MSSA; 50 μM LGX, 10^3 cell concentration of MRSA and MSSA", "value": 5, "unit": "%"},
      {"measurement": "time for fluorescence to reach a maximum", "setting": "MRSA and MSSA; 50 μM LGX, MRSA and MSSA 10^5, FIG. 13", "value": "approximately 3 hours"},
      {"measurement": "fluorescence reading reached (almost instantaneous reaction)", "setting": "MRSA and MSSA; 50 μM LGX, MRSA and MSSA 10^6, FIG. 13", "value": "65,000 RFU"},
      {"measurement": "samples above 20,000 fluorescence units after 1 hour", "setting": "MRSA and MSSA; 50 μM LGX, all concentrations of bacteria, MRSA and MSSA", "value": "more than 80%"},
      {"measurement": "samples with a fluorescence reading greater than 20,000 within 30 minutes", "setting": "MRSA and MSSA; 100 μM LGX, 10^3 cell concentration and above", "value": 100, "unit": "%"},
      {"measurement": "fluorescence reading reached (almost instantaneous reaction)", "setting": "MRSA and MSSA; 100 μM LGX, MRSA and MSSA 10^4 and 10^3, and MSSA 10^2, FIG. 14", "value": "65,000 RFU"},
      {"measurement": "response compared with 100 and 500 μM coumarin system", "setting": "MRSA and MSSA; 100 μM LGX, MRSA and MSSA at 10^2, FIG. 12", "value": "superior response in terms of selectivity and speed"},
      {"measurement": "lowest bacterial concentration at which presence of bacteria is detected", "setting": "MRSA and MSSA; no culturing, fluorescence 525 nm (ex 488 nm)", "value": "10^2"},
      {"measurement": "sensitivity advantage over N-t-BOC-val-pro-arg-7-amido-4-methylcoumarin", "setting": "MRSA and MSSA; response at 10^2 Staphylococcus aureus units, 525 nm (ex 488 nm)", "value": "several orders of magnitude (10^4 bacteria)"},
      {"measurement": "sensitivity relative to the existing commercial dye system", "setting": "MRSA and MSSA; staphylothrombin assay for detection of MRSA and MSSA, estimate", "value": 10, "unit": "times"}
    ]}
  ]
}
